Measured values: US20020179457A1, “Electrochemical method for high-throughput screening of minute quantities of candidate compounds” (priority 2001, published 2002)

Columns and labels:
acetylcholine esterase = acetylcholine esterase (Homo sapiens, UniProt P22303); assay: electrochemical flow cell assay of inhibition of acetylcholine esterase (esterase/choline oxidase/peroxidase cascade); type: biochemical
Description: An aqueous carrier liquid is prepared in an oxygen-containing atmosphere to comprise the buffer of Example 1 and acetylcholine, the total volume of the liquid being less than 0.1 mL. Two samples are prepared. The first sample contains only the buffered acetylcholine solution; the second sample contains the liquid carrier and 100 pg malathion, an insecticide.
The first sample is introduced into the flow cell through the inlet, and the working electrode is poised at +0.1 V versus the standard calomel electrode. The acetylcholine in the solution is hydrolyzed by the esterase on the electrode, producing choline, which, in turn, combines with dissolved oxygen to form hydrogen peroxide. The hydrogen peroxide is electroreduced to water. An electric current is produced between the electrodes as a result. The current produced provides a baseline against which current produced as a result of enzymatic inhibition is measured.

horseradish peroxidase = horseradish peroxidase (Armoracia rusticana, UniProt P00433); conditions: pH 7
Sequence of horseradish peroxidase (P00433 31-338): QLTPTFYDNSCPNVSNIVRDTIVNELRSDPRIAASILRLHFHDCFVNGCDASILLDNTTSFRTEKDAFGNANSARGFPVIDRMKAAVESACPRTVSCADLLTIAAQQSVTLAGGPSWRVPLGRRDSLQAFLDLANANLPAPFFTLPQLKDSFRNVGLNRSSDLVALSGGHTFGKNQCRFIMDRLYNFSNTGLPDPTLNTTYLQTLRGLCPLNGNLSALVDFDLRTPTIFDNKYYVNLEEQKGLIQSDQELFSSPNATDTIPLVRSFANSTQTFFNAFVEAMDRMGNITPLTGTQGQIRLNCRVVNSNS
Description: A system with a total volume of 0.1 mL comprising a flow cell is constructed. The cell comprises a detection chamber having an interior volume of 5 μl, an inlet for directing a stream of liquid into the detection chamber, and an outlet for directing liquid out of the detection chamber. The detection chamber contains a working electrode for assessing the capability of candidate compounds for inhibiting the catalytic activity of horseradish peroxidase, a carbon paste counter electrode, and downstream from the working electrode, near the outlet, a standard calomel reference electrode. The working electrode is formed by co-depositing on a conductive substrate horseradish peroxidase and a redox polymer formed of poly(4-vinyl pyridine) partially reacted with 2-bromoethylamine and partially complexed with [Os(bpy)2Cl]^+/2+ where bpy=2,2′-bipyridine complex of osmium (2+/3+) and poly(4-vinyl pyridine). The horseradish peroxidase and the redox polymer are crosslinked on the substrate by periodate oxidation, whereby aldehyde functions are produced in the oligosaccharides of the peroxidase, and by adding PEGDGE, polyethylene glycol diglycidyl ether.
An aqueous pH 7 phosphate buffer comprises 0.15 M NaCl and 1 mM hydrogen peroxide. Three liquid samples are prepared, each sample 0.1 mL. […]

Sequence of acetylcholine esterase (P22303 32-614): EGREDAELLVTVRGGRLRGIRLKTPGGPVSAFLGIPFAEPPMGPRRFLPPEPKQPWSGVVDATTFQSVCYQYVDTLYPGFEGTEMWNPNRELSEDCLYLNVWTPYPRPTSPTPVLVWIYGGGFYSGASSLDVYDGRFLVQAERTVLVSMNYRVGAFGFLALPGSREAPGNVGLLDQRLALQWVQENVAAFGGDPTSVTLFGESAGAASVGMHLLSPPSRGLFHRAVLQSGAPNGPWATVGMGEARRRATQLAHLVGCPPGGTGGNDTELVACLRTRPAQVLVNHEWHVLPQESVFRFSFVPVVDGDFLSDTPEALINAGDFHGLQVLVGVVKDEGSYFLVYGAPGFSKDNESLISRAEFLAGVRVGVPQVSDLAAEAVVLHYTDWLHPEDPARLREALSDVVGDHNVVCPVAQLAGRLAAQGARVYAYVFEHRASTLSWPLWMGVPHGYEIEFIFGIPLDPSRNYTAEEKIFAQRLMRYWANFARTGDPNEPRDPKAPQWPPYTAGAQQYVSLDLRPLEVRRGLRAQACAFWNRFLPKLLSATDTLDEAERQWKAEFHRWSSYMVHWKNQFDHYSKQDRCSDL

Row | SMILES | current passing from one electrode to another, versus baseline (inhibition of catalytic activity of acetylcholine esterase) (acetylcholine esterase) | current passing from one electrode to another, versus baseline (inhibition of catalytic activity of horseradish peroxidase) (horseradish peroxidase)
1 | CCOC(=O)CC(SP(=S)(OC)OC)C(=O)OCC (centres unmarked) [malathion] | decreased | 
2 | [N-]=[N+]=[N-].[Na+] [azide, sodium azide] |  | decreased
